What was measured:
Format in all cases: in vivo
[1] = test system: green peach aphid (Myzus persicae); test: Green peach aphid (Myzus persicae) systemic test, artificial diet under membrane; details: 72 h, 2500 ppm in aphid diet, 3 days, read-out: mortality in comparison with untreated controls
Source text: II.6 Activity Against Green Peach Aphid (Myzus persicae)
For evaluating control of green peach aphid (Myzus persicae) through systemic means the test unit consisted of 96-well-microtiter plates containing liquid artificial diet under an artificial membrane.
The compounds were formulated using a solution containing 75% v/v water and 25% v/v DMSO. Different concentrations of formulated compounds were pipetted into the aphid diet, using a custom built pipetter, at two replications. After application, 5 to 8 adult aphids were placed on the artificial membrane inside the microtiter plate wells. The aphids were then allowed to suck on the treated aphid diet and incubated at about 23+1° C. and about 50+5% relative humidity for 3 days. Aphid mortality and fecundity was then visually assessed.

[2] = test system: Cotton aphid (Aphis gossypii, mixed life stages); test: Cotton aphid (Aphis gossypii, mixed life stages) foliar spray on infested cotton plants; details: 120 h, after 5 days, read-out: mortality in comparison with untreated controls
Procedure: II.1 Cotton Aphid (Aphis gossypii, Mixed Life Stages)
(§1) The active compounds were formulated in cyclohexanone as a 10,000 ppm solution supplied in 1.3 ml ABgene® tubes. These tubes were inserted into an automated electrostatic sprayer equipped with an atomizing nozzle and they served as stock solutions for which lower dilutions were made in 50% acetone:50% water (v/v). A nonionic surfactant (Kinetic®) was included in the solution at a volume of 0.01% (v/v).
Cotton plants at the cotyledon stage were infested with aphids prior to treatment by placing a heavily infested leaf from the main aphid colony on top of each cotyledon. Aphids were allowed to transfer overnight to accomplish an infestation of 80-100 aphids per plant and the host leaf was removed. The infested plants were then sprayed by an automated electrostatic plant sprayer equipped with an atomizing spray nozzle. The plants were dried in the sprayer fume hood, removed from the sprayer, and then maintained in a growth room under fluorescent lighting in a 24-hr photoperiod at 25° C. and 20-40% relative humidity. Aphid mortality on the treated plants, relative to mortality on untreated control plants, was determined after 5 days.

[3] = test system: Vetch aphid (Megoura viciae); test: Vetch aphid (Megoura viciae) bean leaf disk microtiter plate test; details: foliar, 144 h, test solution 2500 mg/L, bean leaf disks, 6 days
Procedure: II.4 Vetch Aphid (Megoura viciae)
The active compounds were formulated in 1:3 (vol:vol) DMSO:water with different concentrations of formulated compounds.
Bean leaf disks were placed into microtiterplates filled with 0.8% agar-agar and 2.5 ppm OPUS™. The leaf disks were sprayed with 2.5 μl of the test solution and 5 to 8 adult aphids were placed into the microtiterplates which were then closed and kept at 23±1° C. and 50±5% relative humidity under fluorescent light for 6 days. Mortality was assessed on the basis of vital, reproduced aphids. Aphid mortality and fecundity was then visually assessed.

[4] = test system: Green peach aphid (Myzus persicae, mixed life stages); test: Green peach aphid (Myzus persicae, mixed life stages) foliar spray on infested bell pepper plants; details: 120 h, after 5 days, read-out: mortality in comparison with untreated controls
Procedure: II.2 Green Peach Aphid (Myzus persicae, Mixed Life Stages)
as §1
Bell pepper plants at the first true-leaf stage were infested prior to treatment by placing heavily infested leaves from the main colony on top of the treatment plants. Aphids were allowed to transfer overnight to accomplish an infestation of 30-50 aphids per plant and the host leaves were removed. The infested plants were then sprayed by an automated electrostatic plant sprayer equipped with an atomizing spray nozzle. The plants were dried in the sprayer fume hood, removed, and then maintained in a growth room under fluorescent lighting in a 24-hr photoperiod at 25° C. and 20-40% relative humidity. Aphid mortality on the treated plants, relative to mortality on untreated control plants, was determined after 5 days.

[5] = test system: Silverleaf whitefly (Bemisia argentifolii, adult); test: Silverleaf whitefly (Bemisia argentifolii, adult) on sprayed cotton plants; details: 72 h, spray on cotton plants, 3 days after treatment, read-out: mortality in comparison with untreated controls
Procedure: II.7 Silverleaf Whitefly (Bemisia argentifolii, Adult)
as §1
Cotton plants at the cotyledon stage (one plant per pot) were sprayed by an automated electrostatic plant sprayer equipped with an atomizing spray nozzle. The plants were dried in the sprayer fume hood and then removed from the sprayer. Each pot was placed into a plastic cup and 10 to 12 whitefly adults (approximately 3-5 days old) were introduced. The insects were collected using an aspirator and 0.6 cm, nontoxic Tygon® tubing (R-3603) connected to a barrier pipette tip. The tip, containing the collected insects, was then gently inserted into the soil containing the treated plant, allowing insects to crawl out of the tip to reach the foliage for feeding. Cups were covered with a reusable screened lid (150-micron mesh polyester screen PeCap from Tetko, Inc.). […] Mortality was assessed 3 days after treatment, compared to untreated control plants.

[6] = test system: Cowpea aphid (Aphis craccivora); test: Cowpea aphid (Aphis craccivora) spray on potted cowpea plants; details: assessed after 24, 72, and 120 hours, read-out: mortality in comparison with untreated controls
Procedure: II.3 Cowpea Aphid (Aphis craccivora)
The active compounds were formulated in 50:50 (vol:vol) acetone:water. The test solution was prepared at the day of use.
Potted cowpea plants colonized with 100-150 aphids of various stages were sprayed after the pest population had been recorded. Population reduction was assessed after 24, 72, and 120 hours.

Cc1c(C(=O)/N=c2\ccn(C)nc2)cnn1CC(F)(F)F [Compound 7, 5-methyl-1-(2,2,2-trifluoro-ethyl)-1H-pyrazole-4-carboxylic acid [1-methyl-1H-pyridazin-(4E)-ylidene]-amide]
mortality at 2500 ppm [1]: 100% | mortality at 300 ppm [2]: ≥ 75% | mortality at 2500 µg/mL [3]: ≥ 90% | mortality at 300 ppm [4]: ≥ 75% | mortality at 300 ppm [5]: ≥ 75% | mortality at 300 ppm [6]: ≥ 90%

Reference: patent US9247745B2, “Substituted pyridazines for controlling invertebrate pests” (BASF SE, priority 2010, dated 2016)
